# According to paper PMC12521541, “A novel D-peptide modulates DCLK1 gelsolin interactions, reducing PDAC tumor growth” (Scientific Reports, 2025):
# Entries after “also recorded” stand apart in the source; their conditions may differ. Read-outs that look alike come from different tables or passages of the source. Non-standard residues stand in square brackets, D forms with d. Residues, ends and D or L forms follow the SMILES beside them.
# B1: human DCLK1 isoform 4 (beta-short) (natural protein, UniProt O15075-4 1-433, looked up)
# chain: MLELIEVNGTPGSQLSTPRSGKSPSPSPTSPGSLRKQRSSQHGGSSTSLASTKVCSSMDENDGPGEEVSEEGFQIPATITERYKVGRTIGDGNFAVVKECVERSTAREYALKIIKKSKCRGKEHMIQNEVSILRRVKHPNIVLLIEEMDVPTELYLVMELVKGGDLFDAITSTNKYTERDASGMLYNLASAIKYLHSLNIVHRDIKPENLLVYEHQDGSKSLKLGDFGLATIVDGPLYTVCGTPTYVAPEIIAETGYGLKVDIWAAGVITYILLCGFPPFRGSGDDQEVLFDQILMGQVDFPSPYWDNVSDSAKELITMMLLVDVDQRFSAVQVLEHPWVNDDGLPENEHQLSVAGKIKKHFNTGPKPNSTAAGVSVIATTALDKERQVFRRRRNQDVRSRYKAQPAPPELNSESEDYSPSSSETVRSPNSPF
# notes: For the library screen the protein was labelled with biotin (NHS-LC-biotin); source: E. coli BL21(DE3) pLPP with the pET19-DCLK1 isoform 4 plasmid, purified
# Key:
# DCLK1 isoform 1 = test: Crossreactivity with DCLK1 isoform 1; format: binding, human
# [1] = tested on: AsPC-1 pancreatic cancer cells; test: Colony formation assay (clonogenicity), AsPC-1; format: cell-based; conditions: blinded study
# [2] = tested on: Capan-1 pancreatic cancer cells; test: Colony formation assay (clonogenicity), Capan-1; format: cell-based; conditions: blinded study
# AsPC-1 cells = test: PDAC spheroid self-renewal assay, AsPC-1; format: cell-based; conditions: Matrigel 7 days or 0.3% agar 3 weeks
# Description: (§1) AsPC-1 and CAPAN-1 cancer cells were treated with candidate D-peptides or vehicle control and suspended in growth factor-reduced Matrigel™ for 7 days or 0.3% agar for 3 weeks and monitored for spheroid growth. The size and number of spheroids were analyzed, counted, and then compared between the treatment groups[41],[42].
# Capan-1 cells = test: PDAC spheroid self-renewal assay, Capan-1; format: cell-based; conditions: Matrigel 7 days or 0.3% agar 3 weeks
# Description: as §1
# [3] = tested on: PDAC cell lines AsPC-1 and Capan-1; test: Functional bioassays in PDAC cell lines (overall activity); format: cell-based; conditions: summary of bioassays in AsPC-1 and Capan-1
# Description: (§2) AsPC-1 and CAPAN-1 cells were grown as previously described with varying concentrations of candidate D-peptides[40]. Afterward, we treated cells with TACS MTT Reagent (RND Systems) at 37 C until a dark crystalline precipitate within the cells was observed. NH4OH in DMSO was added and incubated for 10 min while protected from light. We determined the OD550 and averaged it as a percentage of cell proliferation.
# as §1
# [4] = tested on: PDAC cells (AsPC-1 and CAPAN-1); test: Proliferation assay (MTT); format: cell-based; conditions: OD550, in vitro
# Description: as §2
# AsPC-1 xenografts = test: AsPC-1 xenograft tumor growth; format: in vivo; conditions: for gross inspection of excised xenografts: AsPC-1 flank xenografts, excised after treatment until day 36
# Description: Athymic nude (Foxn1^nu/Foxn1^nu) mice were purchased from the Jackson Laboratory (Bar Harbor, Maine) and housed in pathogen-free conditions. AsPC-1 cells (1 × 10^7) were injected subcutaneously into the flanks of 4- to 6-week-old mice (n = 3/group). Tumors were measured using a caliper and the volume was calculated as (length × width^2) × 0.5. Once tumors achieved an average size of ~ 100 mm^3 mice were injected via intraperitoneal injection (10 mg/kg, […]) with selected D-peptides. Treatments were continued every three days until day 36. Xenografts were then excised and evaluated by gross inspection.
# [5] = Assessment of DCLK1 D-peptide toxicity in mice; format: in vivo; conditions: athymic mice; escalating doses every three days, 750 µg increasing by 500 µg to 4000 µg/mouse; vs saline-treated controls
# Description: Supplemental Figure 1. Assessment of DCLK1 D-peptide Toxicity in Mice. Mice received escalating doses of D-peptide 1 every three days, starting with 750 µg (equivalent to 210 nM in blood and extravascular fluid) and increasing by 500 µg per dose, reaching a maximum of 4000 µg/mouse. Monitored toxicity indicators included soft feces, urine stains, depression, rough coat, nasal/ocular discharge, hunching, and body weight changes. […] Major organs were collected, and serum was stored for further biochemical analysis.
# [6] = tested on: DCLK1 isoform 4 / mAb CBT-15; test: Competition assay: mAb CBT-15 binding to DCLK1 isoform 4; design: species or system human; conditions: mean ± SEM; *p < 0.01
# DCLK1 isoform 4 / pGSN = test: ELISA binding of plasma gelsolin (pGSN) to DCLK1 isoform 4; design: species or system human; conditions: for effect of peptide on pGSN binding to DCLK1 isoform 4: peptide 20 mg/well (so in the source), pGSN at 2 µg/ml
# Description: (§3) Polystyrene microtitre Immulon 2HB plate was coated with freshly prepared (400 ng/50 ml) DCLK1 isoform 4 ([…]) in 0.1 M NaHCO3, pH 8.6, overnight at 4 C. After blocking with 1% gelatin in TTBS at RT, different concentrations of gelsolin or FGF19 were added (2 mg/50ul/well, 1 mg/well, 0.5 mg/well, and 0.25 mg/well at […], proteins diluted in TTBS), and incubated at RT. To study the competitive ability of peptides, we used 20 mg/well of either D-peptide 1, D-peptide 3, D-peptide 5, or the C-terminal peptide antigen for the mAb CBT-15. After incubation at RT, plates were washed with TTBS, and bound gelsolin or FGF19 was detected. Bound plasma gelsolin (ab233671; Abcam, Waltham, MA) was immunodetected with anti-gelsolin Ab (ab11081; Abcam, Waltham, MA) or FGF19 (969-FG-025; Bio-Techne, Minneapolis, MN) immunodetected by anti-FGF19 (sc-390621; Santa Cruz Biotechnology, Dallas, TX). Detection was by alkaline phosphatase-conjugated goat anti-mouse IgG (ab97020; Abcam, Waltham, MA) followed by 1-STEP NBT/BCIP substrate (#34042; ThermoFisher Scientific, Waltham, MA) and quantified at 450 nm on a microplate reader.
# DCLK1 isoform 4 / FGF19 = test: ELISA binding of FGF19 to DCLK1 isoform 4; design: species or system human
# Description: as §3
# DCLK1 isoform 4 = target: T1, DCLK1 isoform 4 (Homo sapiens, UniProt O15075); test: SPR analysis of DCLK1 isoform 4 with Gelsolin and FGF19; format: binding; conditions: for Kinetic 1:1 Ave Kd: kinetic 1:1, average (dissociation rate)
# T1 sequence (O15075 687-740 limits assumed): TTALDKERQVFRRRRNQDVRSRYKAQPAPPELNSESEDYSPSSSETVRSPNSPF
# Description: Purification of human DCLK1 isoform 4 was performed at the University of Oklahoma Protein Production and Characterization Core Facility (Norman, OK) using an E. coli strain BL21(DE3) pLPP containing the pET19-DCLK1 isoform 4 plasmid. For Bio-layer Interferometry (BLI) experiments, a C-terminal DCLK1 isoform 2/4 His-tagged protein was used (NovoPro, Shanghai, China). All His-tagged proteins were dialyzed using PBS/glycerol to remove imidazole.
# plasma gelsolin = target: T2, plasma gelsolin (UniProt P06396 28-782); test: SPR; format and conditions not told in the text shown (Fig. 4F, G; Suppl. Table 1); conditions: both partners purified
# T2 construct: plasma gelsolin (pGSN), bought protein; The source is told for the ELISA only; also called pGSN; source: bought: Abcam (ab233671)
# [7] = kinetic 1:1, average, read-out: Kinetic 1:1 Ave KD
# T2 sequence (P06396 28-782): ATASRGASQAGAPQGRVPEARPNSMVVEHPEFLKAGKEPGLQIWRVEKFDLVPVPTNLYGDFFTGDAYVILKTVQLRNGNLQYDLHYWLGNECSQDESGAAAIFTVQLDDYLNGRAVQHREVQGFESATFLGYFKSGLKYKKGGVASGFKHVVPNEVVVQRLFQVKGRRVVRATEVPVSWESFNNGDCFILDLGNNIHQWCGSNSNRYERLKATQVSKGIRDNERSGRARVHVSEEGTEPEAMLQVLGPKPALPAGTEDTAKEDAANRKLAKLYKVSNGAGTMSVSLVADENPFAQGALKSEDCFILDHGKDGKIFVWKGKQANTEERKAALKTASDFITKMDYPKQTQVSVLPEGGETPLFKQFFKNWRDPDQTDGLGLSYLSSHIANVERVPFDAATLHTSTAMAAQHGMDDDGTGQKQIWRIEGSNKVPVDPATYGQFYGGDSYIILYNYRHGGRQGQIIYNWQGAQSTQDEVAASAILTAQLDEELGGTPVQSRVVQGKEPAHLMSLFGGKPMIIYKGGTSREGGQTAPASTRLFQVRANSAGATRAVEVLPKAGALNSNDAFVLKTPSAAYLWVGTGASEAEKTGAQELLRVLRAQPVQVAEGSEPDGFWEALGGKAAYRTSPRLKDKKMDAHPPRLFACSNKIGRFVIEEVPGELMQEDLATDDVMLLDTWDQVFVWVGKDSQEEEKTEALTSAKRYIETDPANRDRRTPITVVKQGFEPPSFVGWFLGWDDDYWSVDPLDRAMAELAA
molecule,measurement,setting,value
NCC(=O)N[C@H](Cc1c[nH]c2ccccc12)C(=O)N[C@H](Cc1ccc(O)cc1)C(=O)NCC(=O)N[C@H](Cc1c[nH]c2ccccc12)C(=O)NCC(=O)N[C@H](CC(=O)O)C(=O)N[C@H](CC(=O)O)C(=O)O [D-peptide 1] (H-G[dW][dY]G[dW]G[dD][dD]-OH; N-terminus and C-terminus assumed),crossreactivity with isoform 1,DCLK1 isoform 1,minimal crossreactivity with isoform 1
same,colony formation (clonogenicity),[1],significantly reduced colony formation (clonogenicity) at low micromolar concentrations
same,colony formation (clonogenicity),[2],significantly reduced colony formation (clonogenicity) at low micromolar concentrations
same,spheroid formation / self-renewal capacity,AsPC-1 cells,markedly impaired self-renewal capacity
same,spheroid formation / self-renewal capacity,Capan-1 cells,markedly impaired self-renewal capacity
same,potency/activity in the bioassays,[3],high potency in the bioassays
same,PDAC cell proliferation,[4],modest in vitro proliferation decreases
same,gross inspection of excised xenografts,AsPC-1 xenografts,no visible necrosis or hemorrhage was observed
same,gross inspection of excised xenografts,AsPC-1 xenografts; listed as Dpeptide 1,"no gross necrosis, hemorrhage, or cavitation"
same,reduction of tumor volume compared to controls,"AsPC-1 xenografts; AsPC-1 xenografts, athymic mice, 10 mg/kg intraperitoneal, until day 36, control peptide D-peptide 3",60%
same,tumor size/growth compared to control,"AsPC-1 xenografts; AsPC-1 xenografts, every three days for six doses, 36 days, control D-peptide 3 n = 8, D-peptide 1 n = 9, *p < 0.01",significantly reduced tumor size compared to control
same,general toxicity during xenograft treatment,AsPC-1 xenografts; flank xenograft model,without general toxicity in non–DCLK1–expressing tissues
same,toxicity,[5],no adverse effects compared to saline-treated controls; also recorded: no apparent toxicity
same,competition with mAb CBT-15 for DCLK1 isoform 4 binding,[6],interacts at a site distinct from CBT-15’s binding site; also recorded: its epitope is distinct from that of mAb CBT-15
same,effect of peptide on pGSN binding to DCLK1 isoform 4,DCLK1 isoform 4 / pGSN,did not block the PPI interaction but seemed to improve pGSN binding to DCLK1; also recorded: enhances pGSN binding
same,effect of peptide on pGSN binding to DCLK1 isoform 4,DCLK1 isoform 4 / pGSN; listed as Dpeptide 1,binds a distinct site and allosterically enhances pGSN association
same,effect of peptide on FGF19 binding to DCLK1 isoform 4,DCLK1 isoform 4 / FGF19; peptide 20 mg/well (so in the source),weak effect with FGF19-DCLK1 association
FGF19: FGF19 (969-FG-025; Bio-Techne),Kinetic 1:1 Ave Ka,"DCLK1 isoform 4; kinetic 1:1, average",5.09E+03 M^-1s^1
same,Kinetic 1:1 Ave Kd,DCLK1 isoform 4,9.13E-03 s^1
same,Kd,DCLK1 isoform 4; [7],1790 nM
same,Kd,"DCLK1 isoform 4; steady-state, average, read-out: Steady-state Affinity Ave KD",970 nM
same,FGF19 binding to DCLK1 isoform 4,DCLK1 isoform 4 / FGF19,bound to DCLK1 isoform 4 similarly to pGSN
Gelsolin,Kinetic 1:1 Ave Ka,"DCLK1 isoform 4; kinetic 1:1, average",5.48E+03 M^-1s^1
same,Kinetic 1:1 Ave Kd,DCLK1 isoform 4,5.47E-04 s^1
same,Kd,DCLK1 isoform 4; [7],99 nM
same,concentration of maximum pGSN binding to DCLK1 isoform 4,"DCLK1 isoform 4 / pGSN; DCLK1-coated plates, pGSN gradient, R^2 of 0.94",2 µg/ml
same,pGSN binding to DCLK1 isoform 4,DCLK1 isoform 4 / pGSN; pGSN gradient,"consistent, linear binding"
B1,Kd,plasma gelsolin,~100 nM
